Results on two compounds are retold here after patent US10111854B2, “Synthesis and use of amine-containing flavonoids as potent anti-leishmanial agents” (The Hong Kong Polytechnic University, priority 2014, dated 2018).

Series [1] has as its system L. braziliensis UA847 amastigotes. Kind of series: Anti-amastigote activity in infected PEM, L. braziliensis UA847. The format is cell-based. The note with it: Leishmania braziliensis, 72 h, 3 days, Giemsa, read-out: Anti-amastigote activity IC50, L. baziliensis UA847. A digest of the protocol:
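Mouse peritoneal elicited macrophages on cover slips, infected overnight at 37 °C with late-log promastigotes at 20:1 parasite:macrophage, were washed and exposed to compound for 72 h at 37 °C. Giemsa staining gave percent infected macrophages and amastigotes per 100 macrophages, from which IC50 was calculated.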

Series [2] deals with peritoneal elicited macrophages (PEM). Kind of series: Cytotoxicity, peritoneal elicited macrophages (PEM). The format is cell-based, mouse. Conditions: mouse.

A value given as a limit tells only on which side of the number the result lay.

As usually defined, the IC50 is the midpoint of a concentration-inhibition curve. Regarding `O=c1cc(-c2ccc(OCCOCCN(Cc3ccccn3)Cc3ccccn3)cc2)oc2ccccc12` [FM09, 2-(4-(2-(2-(bis(pyridin-2-ylmethyl)amino)ethoxy)ethoxy)phenyl)-4H-chromen-4-one], the IC50 in series [1] came to 600 ± 100 nM.
With `O=c1cc(-c2ccc(OCCOCCN(CCOCCOc3ccc(-c4cc(=O)c5ccccc5o4)cc3)Cc3ccncc3)cc2)oc2ccccc12` [compound 39], the IC50 in series [2] is above 88000 nM.
